# Source: patent publication US11883436B2, “Method of preparing hematopoietic stem and progenitor cells for transplantation” (THE BOARD OF TRUSTEES OF THE UNIVERSITY OF ILLINOIS, priority 2020, dated 2024)
# Legend:
# CD34+ UCB progenitors = assay: Human umbilical cord blood (UCB) colony forming assays; type: cell-based
# Procedure: Human Umbilical Cord Blood (UCB) Colony Forming Assays. Colony forming assays were carried out with either CD34^+ UCB progenitors treated as above prior to xenotransplant (i.e., input cells), or from xenotransplant recipient BM after 16 weeks (i.e., output cells). Input cells were plated at a density of 1×10^3 cells/dish. Output cells were plated at a density of 2×10^5 cells/dish. Cells were mixed with METHOCULT® M3434 culture medium (STEMCELL Technologies) and plated into each of three 35-mm gridded dishes. Dishes were incubated at 37° C. for 12 days and colonies were enumerated under a bright light microscope. A clonogenic colony contained at least 50 cells or greater. Findings from the mouse model indicated a role for Gabbr1 neuroreceptor in two aspects of hematopoiesis: proliferation of HSPCs and differentiation of B lineage cells. To evaluate functional conservation of Gabbr1 in hematopoiesis, and translational potentials of GABA signaling for HSPCs, CD34^+ UCB cells were exposed for 2 hours in vitro with increasing doses of either baclofen (Bac), a clinically approved GABA agonist (Bowery, et al. (1980) Nature 283(5742):92-94), or 2-hydroxy-saclofen (Sac), a selective antagonist of GABA B receptor (Kerr, et al. (1988) Neurosci. Lett. 92(1):92-96). […]
# CD34+ UCB cells = assay: CD34+ UCB cell xenotransplants into NSG mice after 2 hour ex vivo treatment; engraftment at 16 weeks; type: in vivo, human
# Procedure: CD34^+ UCB Cell Xenotransplants into NSG Mice. All NSG studies were carried out in accordance with, and approval of the Institutional Animal Care and Use Committee of Indiana University School of Medicine and the Guide for the Care and Use of Laboratory animals. Female NOD.Cg-Prkdc^scid I12rg^tm1Wj1/Szj (NSG) mice were obtained from the In Vivo Therapeutics Core of the Indiana University Simon Cancer Center. Animals were maintained under pathogen-free conditions and maintained on Irradiated Global 2018 (Uniprim 4,100 ppm; Harlan Laboratories) food pellets with ad libitum access to autoclaved, acidified tap water under a 12-hour light-dark cycle at 22° C. to 24° C. Mice were irradiated 4 hours prior to transplant (3.0 Gy of ^137Cesium γ-ray irradiation in an irradiator (J. L. Shepherd, Glendale, CA) at a dose rate of 88 cGy/min). CD34^+ UCB cells were thawed in 1% human serum albumin in STEMSPAN® media (STEMCELL Technologies) with human SCF 100 ng/ml and allowed to sit for 2 hours. Cells were then counted and plated at 0.5×10^6 cells/mL in STEMSPAN® media with 1% HSA. Cells were plated and treated with the following for 2 hours at 37° C.: 1, 10, or 50 μM (RS)-Baclofen (Tocris); 1, 10, or 50 μM 2-hydroxy-saclofen (Tocris); vehicle control (DMSO). Cells were harvested and immediately washed with PBS by centrifugation at 300×g for 10 minutes. Mice were transplanted with 20,000 cells each in 200 μL PBS (n=7 mice per group). PB and BM were harvested at 16 weeks post-transplant.
# Analysis and Multi-Parametric Flow Cytometry Immunostaining of Xenotransplant Mice. For peripheral blood counts, blood was obtained through retro-orbital bleeding and transferred to EDTA-coated tubes. Peripheral blood cell numbers were determined using a Vet Abc Hematological analyzer (Scil Animal Care). For PB, BM, and spleen analysis of the target populations in xenotransplant mice, the cells were collected using a red blood cell lysis assay (eBioscience). The following primary conjugated monoclonal antibodies were used: anti-human CD34 PE (BD Pharmingen), anti-human AC133 APC (Miltenyi Biotec), anti-human CD19 PECy7 (BD Pharmingen), anti-human CD33 PerCP-Cy5.5 (BD Pharmingen), anti-human CD38 FITC (BD Pharmingen), anti-human CD45 APC-fluorescent dye sold under the tradename ALEXA FLUOR® (AF) 750 (Invitrogen), and the fixable amine reactive viability dye, LiveDead (Violet, Invitrogen).
# The lysed PB, BM, and spleen cells were incubated with both human and murine Fc blocking reagent (Miltenyi Biotec) for 10 minutes on ice. Briefly, cells were incubated with the titered antibodies listed above for 30 minutes at 4° C., washed twice in PBS with 2% fetal bovine serum, fixed in 1% PFA (Tousimis), and analyzed within 24 hours on a BD Fortessa™ flow cytometer (BD, Franklin Lakes, NJ, USA) equipped with a 405 nm violet laser, 488 nm blue laser, 640 nm red laser, and 561 nm yellow-green laser. Approximately 100,000 events per sample were acquired uncompensated and exported as FCS 3.1 files, and analyzed utilizing FlowJo software, version 9.9.6 (Tree Star, Inc). “Fluorescent minus one” (FMO) gating controls were also used to ensure proper gating of positive events (Estes, et al. (2010) Curr. Prot. Cytometry 9:9.33.331-11; Estes, et al. (2010) Cytometry Part A 77:831-839).
# Findings from the mouse model indicated a role for Gabbr1 neuroreceptor in two aspects of hematopoiesis: proliferation of HSPCs and differentiation of B lineage cells. To evaluate functional conservation of Gabbr1 in hematopoiesis, and translational potentials of GABA signaling for HSPCs, CD34^+ UCB cells were exposed for 2 hours in vitro with increasing doses of either baclofen (Bac), a clinically approved GABA agonist (Bowery, et al. (1980) Nature 283(5742):92-94), or 2-hydroxy-saclofen (Sac), a selective antagonist of GABA B receptor (Kerr, et al. (1988) Neurosci. Lett. 92(1):92-96). […]
# LSK progenitors = assay: OP9 co-culture B cell differentiation of LSK progenitors treated with Baclofen; type: cell-based, mouse
# Procedure: In vitro B Cell Differentiation Assay. LSK progenitors (4,000) from wild-type and Gabbr1^−/− mice were directly sorted onto pre-prepared OP9 stromal cells with 1 mL complete DMEM medium containing 10% FBS, 1 ng/mL IL-7, and 5 ng/mL Flt-3L. Three and six days later, 1 mL complete DMEM medium was added. One week after initial culture, all cells including OP9 cells were mechanically detached and filtered with a […] cell strainer. Cells were passaged onto fresh OP9 stromal cells with complete medium. Medium was changed every three days. At 14 days after initial culture, all cells were detached and stained with CD45.2, CD19, B220 and CD11b antibodies. The numbers of the different hematopoietic cell populations in each well were calculated by multiplying the total cell numbers from each well with the frequencies of each population. To assess the effects of Gabbr1 on myeloid cell differentiation from LSK cells, the DMEM medium containing 10% FBS, 1 ng/ml IL-7, 5 ng/ml Flt-3L, 5 ng/ml IL-6, 6 ng/ml IL-3 was used. Fourteen days after sorted LSK cells were cultured on OP9 cells, numbers of CD11b^+ and Gr-1^+ cells were measured via flow cytometry.
# In addition, OP9 co-culture experiments were carried out to differentiate HSPCs in vitro toward B lineages. LSK progenitors (3,000-4,000 cells) were sorted from wild-type or Gabbr1 null mutants. These cells were plated on a stromal OP9 cells and induced to differentiate into B cells by supplementing media (a-MEM 25% HYCLONE™ FBS) with IL-7 (1 ng/mL) and Flt3L (5 ng/mL). […]
# To test if OP9 co-cultures would respond to GABBR1 agonist during B cell differentiation, and allow downstream biochemical analysis, the co-cultures were treated with Baclofen. […] Cultures were harvested and analyzed for cell surface marker expression (B220^+ and GABBR1^+) by flow cytometry at day 12.
# As part of this self-regulating direct feedback mechanism, it was also determined whether there were any changes in GABBR1 surface expression in B lineages using flow cytometry. […]
# [1] = system: GAD1/2f/f; CD79a/Mb1-Cre HSPCs (LSK); assay: OP9 co-culture B cell differentiation of GAD1/2-deleted HSPCs with Baclofen in the media; type: cell-based, mouse; details: media supplemented with agonist, 12 days
# Excerpt: To genetically block GABA production during B cell differentiation, the B lineage Cre lines CD79a/Mb1-Cre (19) and CD19-Cre were used (Rickert, et al. (1997) Nucl. Acids Res. 25(6):1317-8). These lines were crossed to a GAD1/2-floxed allele (Meng, et al. (2016) Proc. Natl. Acad. Sci. USA 113(13):3645-50) that also carries the Ai14 Lox-Stop-Lox-tdTomato Cre reporter (Madisen, et al. (2010) Nat. Neurosci. 13(1):133-40). At 6-8 weeks of age, BM were harvested and HSPCs (LSK) were sorted from GAD1/2^f/f; CD79a/Mb1-Cre (Cd79a KO) and GAD1/2^f/f-CD19-Cre (Cd19 KO) mice, as well as littermate Cre-negative controls (wild-type). GAD1/2^ff/ excised by Cre recombination will delete the only enzymes that can produce GABA. HSPCs were plated, 3,000-4,000 per well, in OP9 co-culture and were differentiated for 12 days. Cells were harvested from co-cultures for analysis by flow cytometry. The Ai14 Cre reporter was used to confirm that >95% of CD19^+ and/or B220^+ cells were tdTomato^+ as an indication of robust Cre excision in B lineages. Removal of GAD1/2 with CD79a/Mb1-Cre, but not CD19-Cre, led to dramatic reduction of absolute numbers of CD45^+ hematopoietic and B220^+ B lineages. The percentage of B220^+ cells decreased with GAD1/2 deletion by CD79a/Mb1-Cre.
# HSPC = details: literature comparison; cited from earlier work
# [2] = 10 μM vs vehicle control, spleen of transplanted NSG mice
smiles,measurement,setting,value
"NCC(CC(=O)O)c1ccc(Cl)cc1 (racemic) [Baclofen, 4-amino-3-(4-chorophenyl)-butanoic acid]",in vitro CFUs of CD34+ UCB cells,"CD34+ UCB progenitors; input cells, after 2-hour treatment",did not produce increased colonies
same,"progenitor colonies (CFU) in BM of NSG mice transplanted with treated CD34+ UCB cells, vs controls","CD34+ UCB progenitors; output cells, 16 weeks post-transplantation",three-fold
same,"progenitor engraftment CD38+, BM chimerism","CD34+ UCB cells; 10 μM vs vehicle control, BM, 16 weeks",significant increases
same,CD19+ B-cell reconstitution in spleen,CD34+ UCB cells; [2],two-fold
same,overall engraftment in spleen,CD34+ UCB cells; [2],significant increases in overall engraftment
same,progenitor-specific CD34+ BM engraftment in NSG mice,"CD34+ UCB cells; 10 μM, 2 hours ex vivo, 16 weeks post-transplant",significant improvement
same,engraftment of hCD45+ cells in NSG recipients (BM),"CD34+ UCB cells; 10 μM, 2 hours ex vivo, 16 weeks post-transplant, vs vehicle control",dramatic enhancement over vehicle control
same,"chimerism, fold higher (long-term engraftment)","CD34+ UCB cells; UCB CD34+ cells, 2 hour treatment, 10 μM dose, before transplantation",2- to 8 fold
same,BM chimerism and progenitor numbers in xenograft mouse model,"CD34+ UCB cells; human CD34+ UCB HSPCs, up to 16 weeks",sustained increases
same,B cell production (B220+ cell number),"LSK progenitors; 1 μM, day 12",reached significance in its stimulation of B cell production
same,B cell number across dose curve,"LSK progenitors; 0.5, 1.0, 5.0, 10 μM, day 12","trend of B cell number increase, then decrease"
same,percentage of B220+ cells with surface expression of GABBR1+,"LSK progenitors; 0.5, 1, 5, 10 μM, day 12, flow cytometry",decreased
same,rescue of B cell differentiation defect due to GAD1/2 deletion,[1],partially rescues the defect
"NCC(O)(CS(=O)(=O)O)c1ccc(Cl)cc1 (stereo not drawn) [2-hydroxy-saclofen, 3-Amino-2-(4-chlorophenyl)-2-hydroxypropyl-sulfonic acid]","engraftment (CD45+, CD34+) in NSG mice","CD34+ UCB cells; 1, 10 or 50 μM, 2 hours ex vivo, 16 weeks post-transplant",did not significantly increase engraftment at any of the tested doses
CCCCC[C@H](O)/C=C/[C@H]1[C@H](O)CC(=O)[C@@H]1C/C=C\CCCC(=O)O [Prostaglandin E2],improvement in long-term engraftment,HSPC,2- to 4 fold
